Data on 45 compounds can be found in ChEMBL document CHEMBL3301546, “MMV Malaria Box yeast growth screening”.

Structures are written as SMILES.

Common to all, as to format: functional
The test system of assay [1] is Saccharomyces cerevisiae. The experiment in a line: (§1) MMV: Growth assays were conducted using the prototrophic S. cerevisiae strain JHY222. Each MMV compound (0.1 mM) was tested in minimal media containing dextrose as a carbon source (Yeast Nitrogen Base, Dextrose; YNBD). The growth rate in the presence of each MMV compound was calculated as follows: (i) the first 10 OD readings were averaged and subtracted from all OD readings of the corresponding curve to set the baseline of the growth curve to zero, and (ii) the area under the curve (AUC) was then calculated as the sum of all OD readings. […] A relative growth value was calculated as follows: AUC(DRUG) - AUC(DMSO)/AUC(DMSO); where AUC(DMSO) represents growth measured in a DMSO control well that was on the same microtiter plate of the drug-treated culture.

Assay [2] relates to Saccharomyces cerevisiae. Described as §1, with “rich” for “minimal”, “Extract, Peptone,” for “Nitrogen Base,”, “YPD).” for “YNBD).”.
In assay [3] the test system is Saccharomyces cerevisiae. Described as §1, with “ethanol and glycerol” for “dextrose”, “as” for “as a”, “sources” for “source”, “Ethanol, Glycerol; YNBEG).” for “Dextrose; YNBD).”.

Consider `CN1CCN(c2ccc(Nc3c4ccccc4nc4ccccc34)cc2)CC1`, for which the figures for the “Relative Growth” value in the assay on Saccharomyces cerevisiae [1], in the assay with Saccharomyces cerevisiae [2] and in the assay with Saccharomyces cerevisiae [3] were 0.0237, 0.031 and 0.1233, respectively.
In the case of `O=C(Nc1ccc(Cl)c(Cl)c1)Nc1ccc(Cl)c(Cl)c1`, the “Relative Growth” value in the assay with Saccharomyces cerevisiae [1] is listed as 0.0087; with Saccharomyces cerevisiae [2], -0.0117; in the assay on Saccharomyces cerevisiae [3] it was 0.0859.
Regarding `CCN1CCCC1CNc1[nH]cnc2c3cc(Cl)ccc3nc1-2` (stereo not given), the figures for the “Relative Growth” value in the assay on Saccharomyces cerevisiae [1], in the assay with Saccharomyces cerevisiae [2] and in the assay on Saccharomyces cerevisiae [3] were -0.0942, -0.0942 and -0.3246, respectively.
On to `COc1ccc(-c2c(C)nn3c(N)c(C#N)cnc23)cc1OC`, for which the figures for the “Relative Growth” value in the assay on Saccharomyces cerevisiae [1], in the assay with Saccharomyces cerevisiae [2] and in the assay on Saccharomyces cerevisiae [3] were -0.0079, -0.0311 and -0.7097, respectively.
For the compound `N=c1n(CCN2CCCCC2)c2ccccc2n1CC(=O)c1ccc(Cl)c(Cl)c1`, the “Relative Growth” value is 0.1082 in the assay on Saccharomyces cerevisiae [1], -0.0413 in the assay on Saccharomyces cerevisiae [2] and 0.0494 in the assay on Saccharomyces cerevisiae [3].
For `C[n+]1c2ccccc2nc2ccc(NCCO)cc21` the same measures were 0.0053, -0.1972 and -0.0436.
Turning to `Cc1ccc(-c2cc3c(nn2)-c2ccccc2C3=O)cc1`, the “Relative Growth” value in the assay with Saccharomyces cerevisiae [1] is reported as -0.1641; with Saccharomyces cerevisiae [2], -0.0004; in the assay on Saccharomyces cerevisiae [3], -0.6667.
Turning to `CCN(CC)CCNc1ccnc2cc(Cl)ccc12`, the “Relative Growth” value with Saccharomyces cerevisiae [1] is recorded as 0.0543; with Saccharomyces cerevisiae [2], -0.0501; in the assay with Saccharomyces cerevisiae [3] it was 0.0209.
For `Cc1ccc(Nc2nc(-c3ccccn3)cs2)cc1` the same measures were 0.0898, 0.0194 and 0.1504.
For `Cc1cc(Nc2ccc3ccccc3c2)n2ncnc2n1`, in that order: 0.0095, 0.0302 and -0.024.
`Cc1cc(NCCN2CCCCC2)c2ccc3ccccc3c2n1`: the “Relative Growth” value is on record as 0.1405 with Saccharomyces cerevisiae [1], 0.101 in the assay on Saccharomyces cerevisiae [2] and 0.1901 in the assay with Saccharomyces cerevisiae [3].
`COc1ccc(-n2ccnc2SCC(=O)Nc2cc(C)ccc2C)c(OC)c1`: the figures for the “Relative Growth” value in the assay on Saccharomyces cerevisiae [1], in the assay with Saccharomyces cerevisiae [2] and in the assay with Saccharomyces cerevisiae [3] were -0.0529, -0.0469 and 0.0762, respectively.
For `CCN1CCN(Cc2ccc(NC(=O)c3cc4ccc5cccnc5c4[nH]3)cc2)CC1`, the entries for the “Relative Growth” value with Saccharomyces cerevisiae [1], with Saccharomyces cerevisiae [2] and in the assay on Saccharomyces cerevisiae [3] were 0.0158, 0.0075 and -0.0693, respectively.
Regarding `COc1cc(C(=O)Nc2ccc(-c3nc4ccccc4[nH]3)cc2)cc(OC)c1OC`, the results for the “Relative Growth” value with Saccharomyces cerevisiae [1], in the assay with Saccharomyces cerevisiae [2] and with Saccharomyces cerevisiae [3] were -0.5664, -0.1004 and -0.2463, respectively.
In the case of `O=C(O)C1Cc2c([nH]c3ccccc23)C(c2ccc(Cl)cc2Cl)N1` (stereo not given), the “Relative Growth” value with Saccharomyces cerevisiae [1] was -0.0148; in the assay with Saccharomyces cerevisiae [2] it was -0.035; in the assay on Saccharomyces cerevisiae [3] it was 0.1085.
With `Cc1ccc(N2C(=O)C3C(C2=O)C2(c4ccccc4)C(=O)C3(c3ccccc3)C(c3ccccc3)=C2c2ccccc2)cc1` (stereo not given), the “Relative Growth” value is 0.0552 in the assay on Saccharomyces cerevisiae [1], 0.0561 in the assay on Saccharomyces cerevisiae [2] and 0.0311 in the assay on Saccharomyces cerevisiae [3].
Turning to `CCOC(=O)c1cn(CC)c2cc(N(C)CCc3ccc(OC)c(OC)c3)c(F)cc2c1=O`, the figures for the “Relative Growth” value with Saccharomyces cerevisiae [1], in the assay with Saccharomyces cerevisiae [2] and in the assay with Saccharomyces cerevisiae [3] were -0.8912, -0.6378 and -0.9835, respectively.
Consider `O=C(CCl)NCCOc1ccc(Cl)cc1Cl`, for which the “Relative Growth” value in the assay with Saccharomyces cerevisiae [1] was 0.0391; in the assay with Saccharomyces cerevisiae [2], -0.0085; with Saccharomyces cerevisiae [3], -0.0052.
Consider `O=[N+]([O-])c1ccc(C=NNc2nc3ccccc3[nH]2)cc1`, for which the “Relative Growth” value in the assay on Saccharomyces cerevisiae [1] is -1.0011; in the assay with Saccharomyces cerevisiae [2] it was -0.6981; in the assay with Saccharomyces cerevisiae [3], -1.0063.
For `CCOc1cc2c(cc1OCC)C(c1cc(OC)c(O)cc1Cl)NCC2` (stereo not given) the same measures were 0.0876, -0.0054 and 0.0748.
Turning to `CCOC(=O)c1c(NC(=O)c2ccccc2)sc2c(O)c(CN(CC)CC)ccc12`, the “Relative Growth” value with Saccharomyces cerevisiae [1] was 0.0832; in the assay on Saccharomyces cerevisiae [2], -0.0008; in the assay with Saccharomyces cerevisiae [3] it was 0.1716.
In the case of `CCOC(=O)C1=C(c2ccccc2)N=c2sc(=Cc3cc(C)n(-c4ccc(F)cc4)c3C)c(=O)n2C1c1cccc(OC)c1OC` (stereo not given), the entries for the “Relative Growth” value with Saccharomyces cerevisiae [1], in the assay on Saccharomyces cerevisiae [2] and in the assay with Saccharomyces cerevisiae [3] were 0.0967, -0.0436 and 0.1067, respectively.
As for `CCOc1ccc2nc(C)cc(Nc3ccc(N(C)C)cc3)c2c1.Cl`, the “Relative Growth” value with Saccharomyces cerevisiae [1] is given as -0.1579; in the assay with Saccharomyces cerevisiae [2], -0.2818; with Saccharomyces cerevisiae [3], -0.2064.
As to `CCOC(=O)c1c(C)n(-c2ccc(Cl)cc2)c2ccc(OC(=O)C=Cc3ccccc3)cc12`, the entries for the “Relative Growth” value in the assay with Saccharomyces cerevisiae [1], with Saccharomyces cerevisiae [2] and in the assay on Saccharomyces cerevisiae [3] were 0.0402, -0.0067 and 0.0277, respectively.
For `Cc1cccc(Nc2nc(N)c3ccccc3n2)c1.Cl`, in that order: 0.1313, -0.0941 and 0.3952.
On to `CCn1c(CN2CCN(Cc3ccccc3)CC2)nc2cc(NC(=O)c3cccs3)ccc21`, for which the “Relative Growth” value in the assay with Saccharomyces cerevisiae [1] is recorded as -0.4968; with Saccharomyces cerevisiae [2], -0.0008; in the assay on Saccharomyces cerevisiae [3], -0.226.
Regarding `c1ccc2cc3c(Nc4ccc(N5CCOCC5)cc4)ccnc3cc2c1`, the “Relative Growth” value in the assay with Saccharomyces cerevisiae [1] is 0.0841; with Saccharomyces cerevisiae [2], 0.0179; with Saccharomyces cerevisiae [3], 0.2097.
In the case of `Cc1cc(C)c2c(c1)OCN(Cc1ccccc1Cl)C2`, the “Relative Growth” value in the assay on Saccharomyces cerevisiae [1] is reported as -0.0636; with Saccharomyces cerevisiae [2] it was -0.0627; in the assay with Saccharomyces cerevisiae [3] it was -0.3214.
On to `COc1cc(OC)c(N(C)C(=O)c2cc3c(s2)-c2ccccc2S(=O)(=O)C3)cc1Cl`, for which the “Relative Growth” value is recorded as -0.1342 in the assay on Saccharomyces cerevisiae [1], -0.2124 in the assay on Saccharomyces cerevisiae [2] and -0.2428 in the assay on Saccharomyces cerevisiae [3].
With `COc1ccccc1NC1=C(N2CCCCC2)C(=O)c2ccccc2C1=O`, the “Relative Growth” value in the assay on Saccharomyces cerevisiae [1] is listed as 0.0574; in the assay with Saccharomyces cerevisiae [2], -0.0045; with Saccharomyces cerevisiae [3], 0.1747.
Take `CCOC(=O)c1cn(CC)c2cc(N3CCCCC3)c(F)cc2c1=O`: the “Relative Growth” value in the assay on Saccharomyces cerevisiae [1] is reported as -0.2997; with Saccharomyces cerevisiae [2], -0.0482; in the assay with Saccharomyces cerevisiae [3], -0.2149.
Regarding `CNCCCNc1ccnc2cc(Cl)ccc12`, the “Relative Growth” value was 0.075 in the assay on Saccharomyces cerevisiae [1], 0.1016 in the assay on Saccharomyces cerevisiae [2] and 0.188 in the assay with Saccharomyces cerevisiae [3].
On to `Cc1cc(C=C2SC(=Nc3ccccc3)N(C3CCCC3)C2=O)c(C)n1-c1ccc(Cl)cc1`, for which the figures for the “Relative Growth” value in the assay with Saccharomyces cerevisiae [1], with Saccharomyces cerevisiae [2] and with Saccharomyces cerevisiae [3] were -0.1823, 0.0207 and -0.2078, respectively.
For `CCc1ccc(Nc2cc(C)c3ccc(O)cc3n2)cc1.Cl` the same measures were 0.1514, -0.0071 and 0.0748.
As to `COc1ccc2c(=O)cc(C(Cl)(Cl)Cl)oc2c1`, the “Relative Growth” value was 0.0555 with Saccharomyces cerevisiae [1], 0.0032 in the assay on Saccharomyces cerevisiae [2] and -0.0182 with Saccharomyces cerevisiae [3].
In the case of `CSc1ccccc1C(=O)Nc1nc(-c2ccccn2)cs1`, the “Relative Growth” value in the assay on Saccharomyces cerevisiae [1] is -0.0928; in the assay on Saccharomyces cerevisiae [2], -0.0643; in the assay with Saccharomyces cerevisiae [3], -0.2282.
For `Br.CCn1c2c(c(=N)c3c1CCC3)CCCC2` the same measures were -0.0127, -0.135 and -0.0042.
As to `Cc1ccc2c(C)nc(Nc3nc(C)cc(-c4ccccc4)n3)nc2c1`, the figures for the “Relative Growth” value in the assay on Saccharomyces cerevisiae [1], with Saccharomyces cerevisiae [2] and in the assay on Saccharomyces cerevisiae [3] were -0.1458, -0.9982 and -0.009, respectively.
`Cc1cc(Nc2ccc(Cl)cc2)n2nc(C(F)(F)F)nc2n1`: the “Relative Growth” value in the assay on Saccharomyces cerevisiae [1] was 0.0221; in the assay on Saccharomyces cerevisiae [2], 0.0103; in the assay with Saccharomyces cerevisiae [3], -0.0099.
For `Cc1ccc(N2C3c4ccccc4N(S(=O)(=O)c4ccc(C)cc4)C2c2ccccc2N3S(=O)(=O)c2ccc(C)cc2)cc1`, in that order: -0.0282, -0.0583 and -0.3051.
`Br.Cc1ccc(C)c(-c2csc(Nc3ccc(C)c(C)c3)n2)c1`: the “Relative Growth” value in the assay on Saccharomyces cerevisiae [1] is given as -0.0757; in the assay with Saccharomyces cerevisiae [2], -0.11; in the assay with Saccharomyces cerevisiae [3] it was -0.3216.
For `CCCc1c(CC)c(=N)c2ccccc2n1C` the same measures were -0.0316, -0.0123 and -0.1464.
For `CN(C)c1ccc(N=Cc2ccc(N3CCOCC3)cc2)cc1`, in that order: 0.0616, -0.0781 and 0.068.
In the case of `CCOC(=O)c1cnc2ccc(OC)cc2c1NCc1ccccc1`, the results for the “Relative Growth” value in the assay with Saccharomyces cerevisiae [1], with Saccharomyces cerevisiae [2] and in the assay with Saccharomyces cerevisiae [3] were -0.0203, -0.0244 and -0.1303, respectively.
Consider `CCOC(=O)c1cnc2c(C)cc(C)cc2c1Nc1ccc(OC)c(OC)c1`, for which the “Relative Growth” value in the assay on Saccharomyces cerevisiae [1] is on record as 0.0948; with Saccharomyces cerevisiae [2], -0.1039; with Saccharomyces cerevisiae [3], -0.222.
